In EP0355353A2, “Cycloalkylthiazole derivatives” (F. HOFFMANN-LA ROCHE AG, priority 1988, dated 1990):

Experiments:
Leukotriene D₄ Receptor = target: T1, Leukotriene D₄ Receptor (Cavia porcellus, UniProt Q2NNR5); test: Leukotriene D₄ Receptor Binding Assay (Guinea Pig Lung Homogenate), displacement of ³H-LTD₄; settings: guinea pig lung membrane homogenate, 3.5 nM ³H-LTD₄, 20°C, 30 minutes; read-out: LTD₄ Binding IC₅₀
T1 construct: from tissue; host or cells: guinea pig lung crude membrane fraction
T1 sequence (Q2NNR5 1-340): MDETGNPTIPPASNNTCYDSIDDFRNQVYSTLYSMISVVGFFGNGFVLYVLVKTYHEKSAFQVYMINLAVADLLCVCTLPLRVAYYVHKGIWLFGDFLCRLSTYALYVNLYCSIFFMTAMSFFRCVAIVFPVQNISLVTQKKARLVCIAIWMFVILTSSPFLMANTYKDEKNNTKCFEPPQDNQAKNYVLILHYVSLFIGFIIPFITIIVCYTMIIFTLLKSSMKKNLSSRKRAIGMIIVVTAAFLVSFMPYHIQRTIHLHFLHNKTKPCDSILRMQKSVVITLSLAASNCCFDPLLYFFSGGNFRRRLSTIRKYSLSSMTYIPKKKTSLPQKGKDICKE
Protocol: Leukotriene D₄ Receptor Binding Assay (Guinea Pig Lung Homogenate) […]
a) Preparation of membrane homogenate
Male albino guinea pigs (Hartley strain, 400-500 g body weight) were sacrificed by decapitation. The lungs were removed, frozen in liquid nitrogen and stored at -70° until use. The frozen tissue (5 g) was thawed, minced into small pieces and rinsed in phosphate-buffered saline. The tissue was placed in 40 ml homogenization buffer containing 0.25 M sucrose, 10 mM Tris-HCl, (pH 7.5), and the following protease inhibitors: soybean trypsin inhibitor (5 µg/ml) bacitracin (100 µg/ml), benzamidine (10⁻³M) and phenylmethylsulfonyl fluoride ([…]). The protease inhibitors were included to inhibit proteolysis during the processes of homogenization and centrifugation. The tissue was then homogenized at 0-4°C with a Brinkman PT-20 polytron for a total of 1 minute (10 second pulses at a setting of 6). The homogenate was centrifuged (1000 x g for 10 minutes) to remove tissue clumps, unbroken cells and nuclei. The supernatant was recentrifuged at 30,000 x g for 30 minutes to yield pellets which were referred to as crude membrane fractions. This fraction was then resuspended in the incubation buffer (10 mM Pipes buffer, pH 7.5, 50 mM NaCl), homogenized in a Teflon homogenizer and recentrifuged at 30,000 x g for 30 minutes. The pellets were finally resuspended in the incubation buffer with a Teflon homogenizer at a concentration of 10 to 20 mg/ml of protein in the suspension. The concentrations of proteins were determined using the Biorad reaction kit. […]
b) Receptor-Ligand Binding Assay
Optimum assay conditions were determined with an assay mixture containing: Tyrode solution; 0.1% bovine serum albumin (BSA); 1 mM glycine; 1 mM cysteine; 3.5 nM ³H-LTD₄ and the membrane preparation (100-200 µg protein) in a final volume of 250 µl. The incubation was carried out at 20°C for 30 minutes. At 20°C, binding increased linearly with protein concentration, reached equilibrium in 20 minutes, was saturable, and reversible upon additions of unlabelled LTD₄. Separation of bound from free ³H-LTD₄ was performed by rapid filtration on GF/C glass fiber filters and washing with two 4 ml aliquots of Tyrode solutions containing 0.1% BSA. Radioactivity remaining on the filters was measured in 10 ml of Aquasol. Specific binding was defined as that displaced by 10⁻⁶M unlabelled LTD₄ and was 95% of total binding.

[1] = tested on: LTD₄-Induced Bronchoconstriction; test: Leukotriene-Induced Bronchoconstriction in Guinea Pigs - in vivo leukotriene D₄ (LTD) antagonist test, intravenous and oral testing; set-up: LTD₄-Induced Bronchoconstriction (ID₅₀) i.v. / LTD₄-Induced Bronchoconstriction (ID₅₀) p.o.: unit not given here; settings: for Duration 10 mg/kg p.o. 4 hr.: inhibition with LTD challenge 4 hr. after administration; for Duration 10 mg/kg p.o. 8 hr.: inhibition with LTD challenge 8 hr. after administration; for Duration 10 mg/kg p.o. 18 hr.: inhibition with LTD challenge 18 hr. after administration; for inhibition at 10 mg/kg / inhibition at 1 mg/kg: Cavia porcellus; for inhibition at 10 mg/kg: 2 h, two hours prior to LTD challenge (25 µg/kg i.v.); for Duration 10 mg/kg p.o. 4 hr. / Duration 10 mg/kg p.o. 8 hr. / Duration 10 mg/kg p.o. 18 hr. / inhibition at 10 mg/kg: 10 mg/kg p.o.; for inhibition at 1 mg/kg: iv, 1 mg/kg i.v., 1 minute before LTD challenge (25 µg/kg i.v.), change in tracheal pressure; for LTD₄-Induced Bronchoconstriction (ID₅₀) i.v.: intravenous route; for LTD₄-Induced Bronchoconstriction (ID₅₀) i.v. / LTD₄-Induced Bronchoconstriction (ID₅₀) p.o.: increasing doses, value in parentheses; for LTD₄-Induced Bronchoconstriction (ID₅₀) p.o.: oral route, two hours prior to challenge
Protocol: Leukotriene-Induced Bronchoconstriction in Guinea Pigs - In vivo leukotriene D₄ (LTD) antagonist test
Intravenous and Oral Testing
Male guinea pigs (Hartley strain Charles River) weighing 300-500 g were anesthetized with urethane (∼2 g/kg) intraperitoneally and a polyethylene cannula was inserted into the jugular vein for intravenous drug administration. Tracheal pressure (cm of H₂0) was recorded from a Statham pressure transducer (P 32 AA). Propranolol was administered 5 minutes prior to challenge with LTD. Two minutes later spontaneous breathing was arrested with succinylcholine chloride (1.2 mg/kg) administered intravenously and the animals were ventilated with a Harvard (Model #680) small animal respirator set a 40 breaths/min and 4.0 cc stroke volume. Control vehicle or test drug was administered through the cannula into the jugular vein 1 minute before the animals were challenged intravenously with a maximum constrictory dose of LTD (25 µg/kg) given intravenously. The change in tracheal pressure was averaged for control and drug-treated animals and percent inhibition was calculated. For determination of oral activity, animals were dosed with test compound or vehicle two hours prior to challenge with LTD (25 µg/kg. i.v.).
The relative potency (ID₅₀ values) of test compounds administered by the intravenous and oral route was determined by administering increasing doses of test compound. For determination of the time course of inhibition for various compounds, the time between administration of compound and challenge with LTD was varied. The time course of activity was calculated as the time when inhibition decreased to 40%.

| SMILES | IC50 (Leukotriene D₄ Receptor) [nM] | Duration 10 mg/kg p.o. 4 hr. [1] | Duration 10 mg/kg p.o. 8 hr. [1] | Duration 10 mg/kg p.o. 18 hr. [1] | inhibition at 10 mg/kg [1] [%] | inhibition at 1 mg/kg [1] [%] | LTD₄-Induced Bronchoconstriction (ID₅₀) i.v. [1] | LTD₄-Induced Bronchoconstriction (ID₅₀) p.o. [1] |
| --- | --- | --- | --- | --- | --- | --- | --- | --- |
| CCC(CC)(CC(=O)Nc1cccc(/C=C/c2nc(C3CC3)cs2)c1)C(=O)O [(E)-4-[[3-[2-(4-cyclopropyl-2-thiazolyl)ethenyl]phenyl]amino]-2,2-diethyl-4-oxobutanoic acid] | 20 | 99±1 | 95±1 | 61±6 | 98 ± 1 | 94 ± 2 | 0.18 | 1.1 |
| CCC(CC)(CC(=O)Nc1cccc(/C=C/c2nc(C3CCCCC3)cs2)c1)C(=O)O [(E)-4-[[3-[2-(4-cyclohexyl-2-thiazolyl)ethenyl]phenyl]amino]-2,2-diethyl-4-oxobutanoic acid] | 80 | 69±12 | 81±9 | 38+4 | 87 ± 6 | 96 ± 2 | 0.31 | 0.66 |
| CC(CC(=O)Nc1cccc(/C=C/c2nc(C3CCC3)cs2)c1)C(=O)O (centres unmarked) [(E)-4-[[3-(2-(4-cyclobutyl-2-thiazolyl)ethenyl]phenyl]amino]-2-methyl-4-oxobutanoic acid] | 110 | – | – | – | – | – | (0.61) | – |
| O=C(O)CCC(=O)Nc1cccc(/C=C/c2nc(C3CC3)cs2)c1 [(E)-4-[[3-[2-(4-cyclopropyl-2-thiazolyl)ethenyl]phenyl]amino]-4-oxobutanoic acid] | 4000 | – | – | – | – | 15 ± 4 | – | – |
| CCC(CC)(CC(=O)Nc1cccc(/C=C/c2nc(C3CCC3)cs2)c1)C(=O)O [(E)-4-[[3-[2-(4-cyclobutyl-2-thiazolyl)ethenyl]phenyl]amino]-2,2-diethyl-4-oxobutanoic acid] | 15 | 100±0 | 98±1 | – | 99 ± 1 | 98 | 0.13 | 0.12 |
| CCC(CC)(CC(=O)Nc1cccc(/C=C/c2nc(C3CCCC3)cs2)c1)C(=O)O [(E)-4-[[3-[2-(4-cyclopentyl-2-thiazolyl)ethenyl]phenyl]amino]-2,2-diethyl-4-oxobutanoic acid] | 60 | 99+1 | 98+1 | 70±7 | 97 ± 1 | 99 ± 1 | 0.08 | 0.34 |
